Assay results published in patent US20250134901A1, “PHARMACEUTICAL COMPOSITION CONTAINING COMBINATION OF MELOXICAM AND RIZATRIPTAN AND PROCESS OF PREPARATION THEREOF” (Alembic Pharmaceuticals Limited, priority 2021, published 2025).
≈ marks a conversion by molar mass, not a printed value. Read-outs that look alike come from different tables or passages of the source.

Test: Solubility of meloxicam API in different pH buffered solutions
Format: physicochemical
Settings: read-out: Meloxicam API Solubility (BCS)

For `Cc1cnc(NC(=O)C2=C(O)c3ccccc3S(=O)(=O)N2C)s1` [Meloxicam, 4-hydroxy-2-methyl-N-(5-methyl-2-thiazolyl)-2H-1,2-benzothiazine-3-carboxamide-1,1-dioxide], which solubility (aqueous buffer, pH 4.5 Acetate buffer) is on record?
Its solubility is 30 µg/mL (≈ 85.4 µM).

What about the solubility (aqueous buffer, pH 6.8 Phosphate Buffer) of the same molecule?
The solubility was 2700 µg/mL (≈ 7680 µM).

And the solubility (aqueous buffer, pH 7.5 Phosphate buffer)?
Its solubility is 110 µg/mL (≈ 313 µM).

And the solubility (simulated gastric fluid, 0.01N HCl (pH 2.0))?
The solubility was 20 µg/mL (≈ 56.9 µM).
